Like-named read-outs stand apart in the source and are kept apart here.
Tests used:
GS strain of HHV-6A = assay: Efficacy against HHV-6A in HSB-2 cells with reduced serum; assay type: cell-based
Description: The activity of MBV was evaluated against the GS strain of HHV-6A in HSB-2 cells with reduced serum to slow the growth of lymphocytes.

HCMV UL97 kinase = target: T1, HCMV UL97 kinase (Human cytomegalovirus, UniProt P16788); assay: Surrogate assay: UL97 kinase dependent inhibition of pp65-GFP nuclear aggregation; assay type: cell-based
T1 construct: expressed in transfected cells; host or cells: COS7 cells (transient co-transfection)

[1] = target: T2, HHV-6B U69 protein kinase (Human herpesvirus 6B, UniProt P52446); assay: Surrogate assay: U69 kinase dependent inhibition of pp65-GFP nuclear aggregation; assay type: cell-based; conditions: 15 μM MBV, FIG. 8; listed as MBV
T2 construct: expressed in transfected cells
Source text: This assay is similar to that reported previously for UL97 (Prichard, M. N., et al., 2005. Human cytomegalovirus UL97 Kinase is required for the normal intranuclear distribution of pp65 and virion morphogenesis. J Virol 79:15494-502). […] Inhibition of aggregation was kinase dependent since the U69B K219M mutation, which eliminates an essential lysine, is incapable of inhibiting aggregation.

UL97 kinase = target: T3, UL97 kinase (Human cytomegalovirus, UniProt P16788); assay: UL97 kinase inhibition of pp71 aggregation in cotransfected COS7 cells; assay type: cell-based, HCMV
T3 construct: expressed in transfected cells; host or cells: COS7 cells (transient co-transfection)

pUL97 = target: T4, pUL97 (Human cytomegalovirus, UniProt P16788); assay: Number of PML bodies in COS7 cells expressing pUL97; assay type: cell-based, HCMV; conditions: FIG. 3F
T4 construct: expressed in transfected cells; host or cells: COS7 cells (transient co-transfection)
Description: Indirect immunofluorescence microscopy. Cells expressing proteins from transfected plasmids were visualized by methods published previously (Prichard et al., J. Virol. 79:15494-502 (2005)). Briefly, monolayers of HFF cells were grown on 12 mm diameter coverslips in 24-well plates. Transfected cells were fixed for 15 minutes with freshly prepared 2% formaldehyde in phosphate buffered saline (PBS), washed two times with PBS, and membranes were permeabilized with 0.2% Triton X-100 in PBS for 15 minutes. Monoclonal antibody to the V5 epitope tag was purchased from Invitrogen (Carlsbad, Calif.). Monoclonal antibodies to IE1 (63-27) and ppUL44 (28-21) were generously provided by Bill Britt and were used as culture supernatants with goat anti-mouse secondary antibodies conjugated to FITC or Texas Red (Southern Biotechnology, Birmingham, Ala.).
PML bodies are affected by the kinase. Nuclear aggresomes form in a dynamic microtubule dependent process that initiates with fusion of small aggregations located at or near PML bodies. To determine the effect of pUL97 on these structures, this and other proteins were expressed in COST cells and visualized PML bodies with an antibody to SP100, which is a marker of these domains. […] Their number was also unaffected by the expression of pp71, however it colocalized with these structures and is consistent with previous reports. […]

hyperphosphorylated Rb = assay: Western blot of Rb and p53 in HCMV infected HFF cells; assay type: cell-based, human
Description: Polyacrylamide gels and western blotting. HFF cells were infected at a multiplicity of infection of 2 PFU/cell and at 24 and 72 hours following infection they were disrupted in 2× Lamelli buffer (Sigma-Aldrich, St. Louis, Mo.) and separated on 10%, 7.5%, or 5% polyacrylamide gels depending on the size of the protein to be resolved (BioRad, Hercules, Calif.). Separated proteins were transferred to PVDF membranes (Roche Applied Science, Indianapolis, Ind.) in a buffer containing 28 mM Tris, 39 mM glycine, 0.0375% SDS and 20% methanol in a semi dry transfer cell (BioRad, Hercules, Calif.). Membranes were blocked in 1% blocking buffer (Roche Applied Science, Indianapolis, Ind.), incubated with primary antibodies overnight at 4° C. and washed extensively with PBS supplemented with 0.02% tween 20. A secondary antibody conjugated to alkaline phosphatase (Southern Biotechnology Associates, Birmingham, Ala.) and CDP* (Roche Applied Science, Indianapolis, Ind.) were used to detect the bound primary antibody. Monoclonal antibodies used in these studies were directed against PML (H-238) (Santa Cruz Biotechnology, Santa Cruz, Calif.), DAXX (Upstate Cell Signaling Solutions, Tamecula, Calif.), p53, retinoblastoma, β-tubulin, CREB binding protein (CBP) (Chemicon International, Tamecula, Calif.), and both V5 and Xpress (Invitrogen, Carlsbad, Calif.).
UL97 kinase activity is required for the hyperphosphorylation of Rb. […] Proteins in this complex were examined by Western blots using samples derived from HFF cells that were uninfected, infected with AD169 a recombinant virus (RCΔA97) containing a large deletion in UL97 at a multiplicity of infection of 3 PFU/cell. Some of the infections were conducted in the presence of MBV to confirm that the observed changes were due to a deficiency of its kinase activity. […] In cells infected with the wt virus, increases in levels of p53 were observed (FIG. 4 lanes 9-12), but this increase was unaffected by the deletion of the UL97 open reading frame or treatment with maribavir. Also consistent with this previous report was an increase of hyperphosphorylated Rb at both 24 and 72 hours following infection (FIG. 4, lanes 3, 9). […] A previous report has shown that pp71 directs the proteasome dependent degradation of hypophosphorylated Rb, however observations presented here are distinct in that the hyperphosphorylation and stabilization of this form of Rb is inefficient in the absence UL97 kinase activity.

HHV-6 = conditions: Williams-Aziz et al. 2005; cited from earlier work

## CC(C)Nc1nc2cc(Cl)c(Cl)cc2n1[C@H]1O[C@@H](CO)[C@H](O)[C@@H]1O [maribavir]
GS strain of HHV-6A; HSB2, GS strain of HHV-6A, HSB-2 cells, reduced serum, read-out: EC50 values under conditions of reduced serum
  EC50: 9 to 30 µM
GS strain of HHV-6A; HSB2, HHV-6A in HSB-2 cells, 2% FBS, read-out: EC50
  EC50: 30 µM
GS strain of HHV-6A; HSB2, HHV-6A in HSB-2 cells, 5% FBS, read-out: EC50
  EC50: 9 µM
GS strain of HHV-6A; HSB2, HHV-6A in HSB-2 cells, 10% FBS, read-out: EC50
  EC50: > 50 µM
HCMV UL97 kinase; 15 μM MBV, FIG. 8, listed as MBV
  Effect on ability of UL97 to inhibit pp65-GFP aggregation: reduces the ability of UL97 and U69 to inhibit aggregation
HCMV UL97 kinase; COS7 cells co-expressing pp65-GFP and UL97
  Effect on inhibition of pp65 aggregate formation by the kinase: antagonized
[1]
  Effect on ability of U69 to inhibit pp65-GFP aggregation: reduces the ability of UL97 and U69 to inhibit aggregation
UL97 kinase
  Effect on kinase inhibition of pp71 aggregation: unable to inhibit the aggregation of pp71 in the presence of MBV
pUL97
  Effect on pUL97 reduction of the number of PML bodies: neither the K355M mutant, or pUL97 in the presence of maribavir could affect their numbers
Hyperphosphorylated Rb; HFF cells infected with UL97 deletion virus RCΔ97
  Levels of hyperphosphorylated Rb: relatively unaffected
Hyperphosphorylated Rb; HFF cells infected with wt virus
  Increase in levels of p53: unaffected
Hyperphosphorylated Rb; HFF cells infected with wt virus AD169, 24 hours post infection
  Increase of hyperphosphorylated Rb: did not occur
Hyperphosphorylated Rb; HFF cells infected with wt virus AD169, 72 hours after infection
  Levels of hyperphosphorylated Rb: significantly reduced
Hyperphosphorylated Rb; infected cells, 24 and 72 hours, FIG. 4 legend
  Hyperphosphorylated forms of Rb: reduced
HHV-6
  Inhibition of HHV-6 replication: poor inhibitor
